Laboratory results from article PMC11267363, “Supramolecular Nanofibers Ameliorate Bleomycin‐Induced Pulmonary Fibrosis by Restoring Autophagy” (Advanced Science, 2024).

Test system: TRB3/p62 PPIs in lung tissue
Assay: Co-IP, western blot and q-PCR of lung tissues from bleomycin mice
Assay type: in vivo
Details: i.v.
Experimental: We attempted to elucidate the mechanism of Ac-GFFY-A2 peptide nanofibers in ameliorating bleomycin-induced lung fibrosis at the molecular level. The nanofibers were administered to the lung fibrosis mice model via intravenous (i.v.) injection, saline treatment as the control group. The mice were sacrificed on day 21 and lung tissues were harvested for the following detection. […] Those results confirmed the potential therapeutic efficacy of peptide nanofibers in pulmonary fibrosis at both the transcriptional and translational levels. […] Gene expression was determined relative to that of the endogenous reference gene (Gapdh) using the 2^-ΔΔCt method. […] The protein concentration was measured using BCA Protein Assay Kit (Thermo Scientific). […] The protein transferred PVDF membranes were incubated with following primary antibodies at 4°C overnight: Then the membranes were incubated with horseradish peroxidase (HRP)-conjugated secondary antibodies at room temperature for 1 h, and protein signals were detected using an enhanced chemiluminescence kit (Pierce). […] The co -precipitates were resolved using SDS-PAGE and detected with immunoblotting. […] Fluorescence imaging was performed using a IVIS Lumina II imaging (PerkinElmer, USA) at different time point post injection. […]

Ac-GFFYGGWLTRLLQTK-OH [Ac-GFFY-A2] was tested, and the “mRNA expression levels of Col 1, FN and α-SMA in lung tissues (q-PCR)” value (day 21, versus saline treatment control group) was “significantly lower” and the “TRB3/p62 interaction in lung tissue (co-IP)” value (lung tissues harvested on day 21) was “could disturb the interaction between TRB3 and p62 in lung tissue”.
